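Following 48 hours of exposure in 96-well plates, responses at five concentrations were used to interpolate endpoints linearly. TGI denotes the concentration required for complete inhibition of growth.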
Legend:
Assay in all cases: growth of human tumour cells (NCI), 48 h
[1] = test system: RPMI-8226 leukemia
[2] = test system: OVCAR-4 ovarian
[3] = test system: KM12 colon
[4] = test system: SF-295 CNS
[5] = test system: HCT-15 colon
[6] = test system: COLO 205 colon
[7] = test system: 786-0 renal
[8] = test system: HL-60(TB) leukemia
[9] = test system: MCF7 breast
[10] = test system: DU-145 prostate
[11] = test system: NCI-H460 lung
[12] = test system: IGROV1 ovarian
[13] = test system: SNB-75 CNS
[14] = test system: EKVX NSCLC
[15] = test system: BT-549 breast
[16] = test system: NCI-H23 lung
[17] = test system: M14 melanoma
[18] = test system: LOX IMVI melanoma
[19] = test system: HOP-92 NSCLC
[20] = test system: SW-620 colon
[21] = test system: T-47D breast
[22] = test system: TK-10 renal
[23] = test system: OVCAR-8 ovarian
[24] = test system: A498 renal
[25] = test system: SK-MEL-5 melanoma
[26] = test system: UACC-62 melanoma
[27] = test system: CCRF-CEM leukemia
[28] = test system: UO-31 renal
[29] = test system: UACC-257 melanoma
[30] = test system: NCI-H226 lung
[31] = test system: SF-539 CNS
[32] = test system: MDA-MB-231 breast
[33] = test system: RXF 393 renal
[34] = test system: CAKI-1 renal
[35] = test system: HT29 colon
[36] = test system: SNB-19 CNS
[37] = test system: SK-MEL-2 melanoma
[38] = test system: HS 578T breast
[39] = test system: NCI/ADR-RES ovarian
[40] = test system: ACHN renal
[41] = test system: U251 CNS
[42] = test system: SF-268 CNS
[43] = test system: HCC-2998 colon
[44] = test system: MDA-MB-435
[45] = test system: HCT-116 colon
[46] = test system: SK-MEL-28 melanoma
[47] = test system: PC-3 prostate
[48] = test system: SR leukemia
[49] = test system: K-562 leukemia
[50] = test system: HOP-62 NSCLC
[51] = test system: SK-OV-3 ovarian

CCOC(=O)C(C)c1nc2cc3cccnc3c(Cl)c2[nH]c1=O (stereo unspecified)
TGI [1]: > 100 µM | TGI [2]: > 100 µM | TGI [3]: > 100 µM | TGI [4]: > 100 µM | TGI [5]: > 100 µM | TGI [6]: > 100 µM | TGI [7]: > 100 µM | TGI [8]: > 100 µM | TGI [9]: > 100 µM | TGI [10]: 50 µM | TGI [11]: > 100 µM | TGI [12]: > 100 µM | TGI [13]: > 100 µM | TGI [14]: > 100 µM | TGI [15]: > 100 µM | TGI [16]: > 100 µM | TGI [17]: > 100 µM | TGI [18]: > 100 µM | TGI [19]: > 100 µM | TGI [20]: > 100 µM | TGI [21]: > 100 µM | TGI [22]: > 100 µM | TGI [23]: > 100 µM | TGI [24]: > 100 µM | TGI [25]: > 100 µM | TGI [26]: > 100 µM | TGI [27]: > 100 µM | TGI [28]: > 100 µM | TGI [29]: > 100 µM | TGI [30]: > 100 µM | TGI [31]: > 100 µM | TGI [32]: > 100 µM | TGI [33]: > 100 µM | TGI [34]: > 100 µM | TGI [35]: > 100 µM | TGI [36]: > 100 µM | TGI [37]: > 100 µM | TGI [38]: > 100 µM | TGI [39]: > 100 µM | TGI [40]: > 100 µM | TGI [41]: > 100 µM | TGI [42]: > 100 µM | TGI [43]: > 100 µM | TGI [44]: > 100 µM | TGI [45]: > 100 µM | TGI [46]: > 100 µM | TGI [47]: > 100 µM | TGI [48]: > 100 µM | TGI [49]: > 100 µM | TGI [50]: > 100 µM | TGI [51]: > 100 µM
